In general, IC50 refers to the point on the concentration scale where inhibition reaches its midpoint. Higher therefore signals weaker potency in that assay.

This passage reports IC50 results from patent US12637454B2, “Heterocyclic monoacylglycerol lipase (MAGL) inhibitors” (Hoffmann-La Roche Inc., priority 2019, dated 2026).

For this assay, the target named is T1, MAGL (Homo sapiens, UniProt Q99685).
T1 sequence (Q99685 1-303): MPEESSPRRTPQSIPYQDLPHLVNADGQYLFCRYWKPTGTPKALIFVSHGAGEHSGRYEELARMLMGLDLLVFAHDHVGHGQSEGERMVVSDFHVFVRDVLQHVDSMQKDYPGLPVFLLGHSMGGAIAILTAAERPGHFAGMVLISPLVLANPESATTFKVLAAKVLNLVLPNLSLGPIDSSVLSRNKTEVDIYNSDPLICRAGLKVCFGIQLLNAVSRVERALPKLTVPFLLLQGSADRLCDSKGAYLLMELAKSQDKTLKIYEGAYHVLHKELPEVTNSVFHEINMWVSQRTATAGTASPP
The assay can be described thus: 2-AG assay (MAGL inhibitory activity, hydrolysis of 2-arachidonoylglycerol followed by mass spectrometry). It counts as biochemical. The following applies: 50 pM MAGL, 8 μM 2-arachidonoylglycerol, 15 min preincubation, 30 min incubation at RT. How it is done:
Compounds were profiled for MAGL inhibitory activity by determining the enzymatic activity by following the hydrolysis of the natural substrate 2-arachidonoylglycerol (2-AG) resulting in arachidonic acid, which can be followed by mass spectrometry. This assay is hereinafter abbreviated “2-AG assay”.
The 2-AG assay was carried out in 384 well assay plates (PP, Greiner Cat #784201) in a total volume of 20 μL. Compound dilutions were made in 100% DMSO (VWR Chemicals 23500.297) in a polypropylene plate in 3-fold dilution steps to give a final concentration range in the assay from 12.5 μM to 0.8 pM. 0.25 μL compound dilutions (100% DMSO) were added to 9 μL MAGL in assay buffer (50 mM TRIS (GIBCO, 15567-027), 1 mM EDTA (Fluka, 03690-100 mL), 0.01% (v/v) Tween. After shaking, the plate was incubated for 15 min at RT. To start the reaction, 10 μL 2-arachidonoylglycerol in assay buffer was added. The final concentrations in the assay was 50 pM MAGL and 8 μM 2-arachidonoylglyerol. After shaking and 30 min incubation at RT, the reaction was quenched by the addition of […] of ACN containing 4 μM of d8-arachidonic acid. The amount of arachidonic acid was traced by an online SPE system (Agilent Rapidfire) coupled to a triple quadrupole mass spectrometer (Agilent 6460). A C18 SPE cartridge (G9205A) was used in an ACN/water liquid setup. The mass spectrometer was operated in negative electrospray mode following the mass transitions 303.1→259.1 for arachidonic acid and 311.1→267.0 for d8-arachidonic acid. The activity of the compounds was calculated based on the ratio of intensities [arachidonic acid/d8-arachidonic acid].

“4-[(E)-2-[3-[(7R,9aR)-7-(4-Chlorophenyl)-1,3,4,6,7,8,9,9a-octahydropyrido[1,2-a]pyrazine-2-carbonyl]-2-bromo-phenyl]vinyl]-N-methyl-benzamide and 3-[(E)-2-[4-[(7R,9aR)-7-(4-chlorophenyl)-1,3,4,6,7,8,9,9a-octahydropyrido[1,2-a]pyrazine-2-carbonyl]phenyl]vinyl]-2-bromo-N-methyl-benzamide [Example 31]” showed an IC50 of 3.72 nM.

Compound `COc1cccc(C(=O)N2CCN3C[C@@](O)(CC(C)C)CC[C@@H]3C2)c1Cl` (racemic) [Example 24, (2-Chloro-3-methoxyphenyl)-[rac-(7R,9aS)-7-hydroxy-7-(2-methylpropyl)-3,4,6,8,9,9a-hexahydro-1H-pyrido[1,2-a]pyrazin-2-yl]methanone] had an IC50 of 626 nM.

`COc1cccc(C(=O)N2CCN3C[C@@](O)(C4CCCC4)CC[C@@H]3C2)c1Cl` (racemic) [Example 25, (2-chloro-3-methoxyphenyl)-[rac-(7R,9aS)-7-cyclopentyl-7-hydroxy-3,4,6,8,9,9a-hexahydro-1H-pyrido[1,2-a]pyrazin-2-yl]methanone] showed an IC50 of 548 nM.

As to `COc1cccc(C(=O)N2CCN3C[C@@](O)(C(F)(F)F)CC[C@@H]3C2)c1Cl` (racemic) [Example 26, (2-Chloro-3-methoxyphenyl)-[rac-(7R,9aR)-7-hydroxy-7-(trifluoromethyl)-3,4,6,8,9,9a-hexahydro-1H-pyrido[1,2-a]pyrazin-2-yl]methanone], inhibition was half-maximal at 678 nM (IC50).

As for `CC1(O)CCN(c2cccc(C(=O)N3CCN4C[C@@](O)(c5ccc(Cl)cc5)CC[C@@H]4C3)c2Cl)C1` (mixture of isomers) [Example 50, [2-chloro-3-(3-hydroxy-3-methylpyrrolidin-1-yl)phenyl]-[rac-(7R,9aS)-7-(4-chlorophenyl)-7-hydroxy-3,4,6,8,9,9a-hexahydro-1H-pyrido[1,2-a]pyrazin-2-yl]methanone], inhibition was half-maximal at 72.4 nM (IC50).

As to `COc1cccc(C(=O)N2CCN3CC(O)(c4ccc(C(F)(F)F)nc4)CCC3C2)c1Cl` (racemic) [Example 71, (2-chloro-3-methoxyphenyl)-[rac-(7R,9aR)-7-hydroxy-7-[6-(trifluoromethyl)pyridin-3-yl]-3,4,6,8,9,9a-hexahydro-1H-pyrido[1,2-a]pyrazin-2-yl]methanone], the IC50 worked out at 278 nM.

Compound `COc1cccc(C(=O)N2CCN3CC(O)(c4ccc(C(F)(F)F)nc4)CCC3C2)c1Cl` (racemic) [Example 72, (2-chloro-3-methoxyphenyl)-[rac-(7R,9aS)-7-hydroxy-7-[6-(trifluoromethyl)pyridin-3-yl]-3,4,6,8,9,9a-hexahydro-1H-pyrido[1,2-a]pyrazin-2-yl]methanone] gave an IC50 of 3490 nM.

In the case of `O=C(c1cccc(OC(F)F)c1Cl)N1CCN2C[C@@](O)(c3ccc(C(F)(F)F)cn3)CC[C@@H]2C1` (stereo in doubt) [Example 37, [(7R,9aR)-7-hydroxy-7-[5-(trifluoromethyl)pyridin-2-yl]-3,4,6,8,9,9a-hexahydro-1H-pyrido[1,2-a]pyrazin-2-yl]-[2-chloro-3-(difluoromethoxy)phenyl]methanone], the IC50 was determined as 898 nM.

With `O=C(c1cccc(OC(F)F)c1Cl)N1CCN2C[C@](O)(c3ccc(C(F)(F)F)cn3)CC[C@H]2C1` (stereo in doubt) [Example 38, [(7S,9aS)-7-hydroxy-7-[5-(trifluoromethyl)pyridin-2-yl]-3,4,6,8,9,9a-hexahydro-1H-pyrido[1,2-a]pyrazin-2-yl]-[2-chloro-3-(difluoromethoxy)phenyl]methanone], the IC50 came to 327 nM.

`COc1cccc(C(=O)N2CCN3C[C@@](O)(c4ccc(F)c(Cl)c4)CC[C@@H]3C2)c1Cl` [Example 1, [(7S,9aR)-7-(3-Chloro-4-fluorophenyl)-7-hydroxy-3,4,6,8,9,9a-hexahydro-1H-pyrido[1,2-a]pyrazin-2-yl]-(2-chloro-3-methoxyphenyl)methanone] displayed an IC50 of 4.48 nM.

`COc1cccc(C(=O)N2CCN3C[C@](O)(c4ccc(F)c(Cl)c4)CC[C@H]3C2)c1Cl` [Example 2, [(7R,9aS)-7-(3-chloro-4-fluorophenyl)-7-hydroxy-3,4,6,8,9,9a-hexahydro-1H-pyrido[1,2-a]pyrazin-2-yl]-(2-chloro-3-methoxyphenyl)methanone]: it took 18.8 nM to reach half-maximal inhibition (IC50).

The compound `O=C(c1cccc(-c2ccn[nH]2)c1Cl)N1CCN2C[C@@](O)(c3ccc(Cl)cc3)CC[C@@H]2C1` [Example 3, [(7S,9aR)-7-(4-chlorophenyl)-7-hydroxy-3,4,6,8,9,9a-hexahydro-1H-pyrido[1,2-a]pyrazin-2-yl]-[2-chloro-3-(1H-pyrazol-5-yl)phenyl]methanone] yielded an IC50 of 4.31 nM.

For `O=C(c1cccc(-c2ccn[nH]2)c1Cl)N1CCN2C[C@](O)(c3ccc(Cl)cc3)CC[C@H]2C1` [Example 4, [(7R,9aS)-7-(4-chlorophenyl)-7-hydroxy-3,4,6,8,9,9a-hexahydro-1H-pyrido[1,2-a]pyrazin-2-yl]-[2-chloro-3-(1H-pyrazol-5-yl)phenyl]methanone], the IC50 was 76.3 nM.

As for `O=C(c1cccc(-c2c[nH]nc2F)c1Cl)N1CCN2C[C@@](O)(c3ccc(Cl)cc3)CC[C@@H]2C1` [Example 5, [(7S,9aR)-7-(4-chlorophenyl)-7-hydroxy-3,4,6,8,9,9a-hexahydro-1H-pyrido[1,2-a]pyrazin-2-yl]-[2-chloro-3-(3-fluoro-1H-pyrazol-4-yl)phenyl]methanone], 1.95 nM corresponded to half-maximal inhibition (IC50).

As for `O=C(c1cccc(-c2c[nH]nc2F)c1Cl)N1CCN2C[C@](O)(c3ccc(Cl)cc3)CC[C@H]2C1` [Example 6, [(7R,9aS)-7-(4-chloropheny1)-7-hydroxy-3,4,6,8,9,9a-hexahydro-1H-pyrido[1,2-a]pyrazin-2-yl]-[2-chloro-3-(3-fluoro-1H-pyrazol-4-yl)phenyl]methanone], the IC50 worked out at 17.2 nM.

The compound `COc1ccc(C(=O)N2CCN3C[C@@](O)(c4ccc(Cl)cc4)CC[C@@H]3C2)c(Cl)n1` [Example 7, [(7S,9aR)-7-(4-chlorophenyl)-7-hydroxy-3,4,6,8,9,9a-hexahydro-1H-pyrido[1,2-a]pyrazin-2-yl]-(2-chloro-6-methoxypyridin-3-yl)methanone] displayed an IC50 of 398 nM.

`Cc1nc(N)ccc1C(=O)N1CCN2C[C@@](O)(c3ccc(Cl)cc3)CC[C@@H]2C1` [Example 8, [(7S,9aR)-7-(4-chlorophenyl)-7-hydroxy-3,4,6,8,9,9a-hexahydro-1H-pyrido[1,2-a]pyrazin-2-yl]-(6-amino-2-methylpyridin-3-yl)methanone] had an IC50 of 2960 nM.

`O=C(c1cccc(N2CC(O)C2)c1Cl)N1CCN2C[C@@](O)(c3ccc(Cl)cc3)CC[C@@H]2C1` [Example 9, [(7S,9aR)-7-(4-chlorophenyl)-7-hydroxy-3,4,6,8,9,9a-hexahydro-1H-pyrido[1,2-a]pyrazin-2-yl]-[2-chloro-3-(3-hydroxyazetidin-1-yl)phenyl]methanone] returned an IC50 of 16.2 nM.

Consider `O=C(c1cccc(N2CC(O)C2)c1F)N1CCN2C[C@@](O)(c3ccc(Cl)cc3)CC[C@@H]2C1` [Example 10], for which half-maximal inhibition (IC50) was put at 58.2 nM.

On to `Cn1c(Cl)c(C(=O)N2CCN3C[C@](O)(c4ccc(Cl)cc4)CC[C@H]3C2)ccc1=O` [Example 11, 5-[(7R,9aS)-7-(4-chlorophenyl)-7-hydroxy-3,4,6,8,9,9a-hexahydro-1H-pyrido[1,2-a]pyrazine-2-carbonyl]-6-chloro-l-methylpyridin-2-one], for which half-maximal inhibition (IC50) required 775 nM.

Turning to `Cn1c(Cl)c(C(=O)N2CCN3C[C@@](O)(c4ccc(Cl)cc4)CC[C@@H]3C2)ccc1=O` [Example 12, 5-[(7S,9aR)-7-(4-chlorophenyl)-7-hydroxy-3,4,6,8,9,9a-hexahydro-1H-pyrido[1,2-a]pyrazine-2-carbonyl]-6-chloro-l-methylpyridin-2-one], half-maximal inhibition (IC50) was put at 4460 nM.

`O=C(c1cccc(N2CCOC2=O)c1Cl)N1CCN2C[C@@](O)(c3ccc(Cl)cc3)CC[C@@H]2C1` [Example 13, 3-[3-[(7S,9aR)-7-(4-chlorophenyl)-7-hydroxy-3,4,6,8,9,9a-hexahydro-1H-pyrido[1,2-a]pyrazine-2-carbonyl]-2-chlorophenyl]-1,3-oxazolidin-2-one] came in with an IC50 of 1190 nM.

In turn, `O=C(c1cccc(N2CCNC2=O)c1Cl)N1CCN2C[C@@](O)(c3ccc(Cl)cc3)CC[C@@H]2C1` [Example 14, 1-[3-[(7S,9aR)-7-(4-chlorophenyl)-7-hydroxy-3,4,6,8,9,9a-hexahydro-1H-pyrido[1,2-a]pyrazine-2-carbonyl]-2-chlorophenyl]imidazolidin-2-one] registered an IC50 of 2160 nM.
